In this experiment the target is Platelet-activating factor receptor (Oryctolagus cuniculus). The experiment is described as follows: In vitro inhibition of PAF-induced aggregation of rabbit washed platelets.

The structures appear in SMILES notation.

In the case of `CCOC(=O)C1=C(c2ccc(-n3c(C)nc4cnccc43)cc2)N=C(C)C(C(=O)OC(C)(C)C)C1c1ccccc1Cl` (stereo unspecified), half-maximal inhibition (IC50) required 1.3 nM.

For `CCOC(=O)C1=C(c2ccc(-n3c(C)nc4ccncc43)cc2)N=C(C)C(C(=O)Nc2ccccn2)C1c1ccccc1Cl` (stereo unspecified), inhibition was half-maximal at 22 nM (IC50).

For the molecule `CCOC(=O)C1=C(c2ccc(-n3c(C(F)(F)F)nc4cnccc43)cc2)N=C(C)C(C(=O)Nc2ccccn2)C1c1ccccc1Cl` (stereo unspecified), half-maximal inhibition (IC50) required 30 nM.

Regarding `CCOC(=O)C1=C(c2ccc(-c3ocnc3C)cc2)N=C(C)C(C(=O)Nc2ccccn2)C1c1ccccc1Cl` (stereo unspecified), half-maximal inhibition (IC50) was put at 200 nM.

As for `CCOC(=O)C1=C(c2ccc(-n3c(C)nc4cnccc43)cc2)N=C(C)C(C(N)=O)C1c1ccccc1Cl` (stereo unspecified), half-maximal inhibition (IC50) required 5.6 nM.

`CCOC(=O)C1=C(c2ccc(-n3ccnc3C)cc2)N=C(C)C(C(=O)Nc2ccccn2)C1c1ccccc1Cl` (stereo unspecified): it took 23 nM to reach half-maximal inhibition (IC50).

In the case of `CCOC(=O)C1=C(c2ccc(-n3c(C)nc4cnccc43)cc2)N=C(C)C(C(=O)O)C1c1ccccc1Cl` (stereo unspecified), the IC50 (in general, the midpoint of a concentration-inhibition curve) was 14 nM.

For `CCOC(=O)C1=C(c2ccc(-n3c(C)nc4c(OC)ncnc43)cc2)N=C(C)C(C(=O)Nc2ccccn2)C1c1ccccc1Cl` (stereo unspecified), the IC50 came to 270 nM.

In turn, `CCOC(=O)C1=C(c2ccc(-n3c(C)nc4cnccc43)cc2)N=C(C)C(C(=O)OC)C1c1ccccc1Cl` (stereo unspecified) had a half-maximal inhibitory concentration (IC50) of 1.6 nM. Against the preceding molecule, the IC50 is about 170-fold lower.

With `CCOC(=O)C1=C(c2ccc(-n3c(C)nc4cnccc43)cc2)N=C(C)C(C(=O)NC(C)(C)C)C1c1ccccc1Cl` (stereo unspecified), 3.2 nM corresponded to half-maximal inhibition (IC50).

In turn, `CCOC(=O)C1=C(c2ccc(-n3c(C)nc4cnccc43)cc2)N=C(C)C(C(=O)Nc2ccccn2)C1c1ccc(C#N)cc1` (stereo unspecified) registered a half-maximal inhibitory concentration (IC50) of 25 nM. This IC50 lies about 7.8-fold higher than the previous one.

Molecule `CCOC(=O)C1=C(c2ccc(-n3nc(C)cc3C)cc2)N=C(C)C(C(=O)Nc2ccccn2)C1c1ccccc1Cl` (stereo unspecified) displayed an IC50 of over 10000 nM.

For `CCOC(=O)C1=C(c2ccc(-n3c(C)nnc3C)cc2)N=C(C)C(C(=O)Nc2ccccn2)C1c1ccccc1Cl` (stereo unspecified), half-maximal inhibition (IC50) required 12 nM. That is a double-digit nanomolar value.

In turn, `CCOC(=O)C1=C(c2ccc(-c3c(C)nc4ccccn34)cc2)N=C(C)C(C(=O)Nc2ccccn2)C1c1ccccc1Cl` (stereo unspecified) had an IC50 of 2.1 nM.

Molecule `CCOC(=O)C1=C(c2ccc(-n3c(C)nc4cnccc43)cc2)N=C(C)C(C(=O)Nc2ccccn2)C1c1cccnc1` (stereo unspecified) yielded an IC50 of 33 nM.

With `CCOC(=O)C1=C(c2ccc(-n3c(C)nc4cnccc43)cc2)N=C(C)C(C(=O)Nc2ccccn2)C1c1ccccn1` (stereo unspecified), the IC50 turned out to be 14 nM.

Turning to `CCOC(=O)C1=C(c2ccc(-n3cnc(C)c3)cc2)N=C(C)C(C(=O)Nc2ccccn2)C1c1ccccc1Cl` (stereo unspecified), half-maximal inhibition (IC50) was put at 580 nM. This IC50 lies about 41-fold higher than the previous one.

Take `CCOC(=O)C1=C(c2ccc(-c3c(C)nc4sccn34)cc2)NC(C)=C(C(=O)Nc2ccccn2)C1c1ccccc1Cl` (stereo unspecified): the IC50 worked out at 5 nM.

`CCOC(=O)C1=C(c2ccc(-n3c(C)nc4cnccc43)cc2)N=C(C)C(C(=O)Nc2ccccn2)C1c1cccnc1Cl` (stereo unspecified): inhibition was half-maximal at 13 nM (IC50). Against the preceding molecule, the IC50 is about 2.6-fold higher.

As to `CCOC(=O)C1=C(c2ccc(-n3cc(C)nc3C)cc2)N=C(C)C(C(=O)Nc2ccccn2)C1c1ccccc1Cl` (stereo unspecified), the 50% inhibitory concentration (IC50) was determined as 13 nM.

`CCOC(=O)C1=C(c2ccc(-n3c(C)nc4cnccc43)cc2)N=C(C)C(C(=O)Nc2ccccn2)C1c1csc2ccccc12` (stereo unspecified) came in with a concentration for half-maximal inhibition (IC50) of 3.1 nM.

For the molecule `CCOC(=O)C1=C(c2ccc(-n3c(C)nc4cnccc43)cc2)N=C(C)C(C(=O)Nc2ccccn2)C1c1cccc2c1OCO2` (stereo unspecified), 3.2 nM corresponded to half-maximal inhibition (IC50).

`CCOC(=O)C1=C(c2ccc(-n3c(C)nc4c(C)nc(C)cc43)cc2)N=C(C)C(C(=O)Nc2ccccn2)C1c1ccccc1Cl` (stereo unspecified) returned an IC50 of 5.9 nM. This IC50 is about 1.8-fold higher than that of the molecule before.

As for `CCCCc1nc2cnccc2n1-c1ccc(C2=C(C(=O)OCC)C(c3ccccc3Cl)C(C(=O)Nc3ccccn3)C(C)=N2)cc1` (stereo unspecified), the IC50 amounted to 190 nM.

For `CCOC(=O)C1=C(c2ccc(-n3c(C)nc4cnccc43)cc2)N=C(C)C(C(=O)Nc2ccccn2)C1c1ccccc1OC(F)(F)F` (stereo unspecified), it took 2.3 nM to reach half-maximal inhibition (IC50). This IC50 lies about 83-fold lower than the previous one.

As to `CCOC(=O)C1=C(c2ccc(-n3c(C)nc4cccnc43)cc2)N=C(C)C(C(=O)Nc2ccccn2)C1c1ccccc1Cl` (stereo unspecified), 28 nM corresponded to half-maximal inhibition (IC50).
